Measurements from paper PMC6527222 (PLoS ONE, 2019).

Experiments:
β2-AR [1] = test system: β2-AR; parameters: method as in as printed in each cell (43-46, 48-54, 56-58); conditions: as described in the references; ref (43-46, 48-54, 56-58); cited from earlier work
JB6 P+ cells [2] = assay: SRB cytotoxicity assay; format: cell-based, mouse; conditions: 72 hr; NT = no toxicity at any concentration tested
Experimental: 96-well plates were seeded with 3x10^3 JB6 P+ cells per well and allowed to attach overnight. […] Cell viability was determined using Sulforhodamine B (SRB) assay from Sigma-Aldrich according to the manufacturer’s protocol. Cellular protein content was measured using a Bio-Tek μQuant plate reader with KCJunior software.
Concentration-response curves were normalized so that the EGF positive control on each 96-well plate was set to 100% and the control wells on each plate were set to 0%. Toxicity assays (SRB and MTS) were normalized so that the control on each plate represented 100% viability. Normalization allowed for comparison of data over a range of JB6 P+ cell cultures, passages, and experimental time for the shRNA studies, as well as control for variation in the EGF response, and importantly allowed for a direct comparison to all concentration-response experiments including the toxicity assays. […] All group sizes were determined via previous studies to provide statistically meaningful data. In the soft agar assays, key results were repeated with different JB6 P+ cells to confirm the results. Similarly, the shRNA studies were conducted with three independent concentration-response curves with different JB6 P+ cell stocks. […] For two sample comparisons a t-test was utilized, and when comparing multiple samples a One-, Two-, or Three-Factor ANOVA followed by Tukey-Kramer post hoc test was utilized depending on the data. For all tests, statistical difference was donated when p < 0.05.
The IΔ2*PSD is expressed in x-axis units (log [M]) as is an IC50 and it represents the first concentration where it is expected to observe a statistical decrease in the measured signal.
Using the formula provided by GraphPad Prism or a straight line for the point-to-point graphs, the X-axis value for point Y was determined. The error is ascribed to this measurement via adding and subtracting the pooled standard deviation (PSD) to/from point Y generating point Y ± PSD. The two new points were then transformed to the X-axis units as was done for point Y creating an asymmetric error in sigmoidal plots. When the error was asymmetric, the larger error value was chosen to err on the conservative side. See S1 Fig for a pictoral explination of the method. The data is presented as IΔ2*PSD ± error.

JB6 P+ cells [3] = assay: Soft agar assay with competitive adrenergic receptor antagonists; format: cell-based; conditions: Mus musculus, alone, CGP 12177 experiment (S2 Fig)
Experimental: Ten ng/mL EGF was used to promote the anchorage-independent growth of JB6 cells. […] Plates were incubated at 37°C, 5% CO2 for 14 days. Colonies with greater than ten cells were counted manually under a microscope. Antagonists identified in our assays as ineffective at blocking EGF-mediated transformation of JB6 P+ cells yet displaying no or little toxicity were used as competitive antagonists towards carvedilol-mediated prevention of EGF-induced transformation of JB6 P+ cells.

β2-AR [4] = conditions: given as negative log value; cited from earlier work
JB6 P+ cells [5] = assay: Anchorage-independent growth assay in soft agar (EGF-induced JB6 P+ colony formation); format: cell-based, mouse
Experimental: Ten ng/mL EGF was used to promote the anchorage-independent growth of JB6 cells. […] Plates were incubated at 37°C, 5% CO2 for 14 days. Colonies with greater than ten cells were counted manually under a microscope. […] Normalization allowed for comparison of data over a range of JB6 P+ cell cultures, passages, and experimental time for the shRNA studies, as well as control for variation in the EGF response, and importantly allowed for a direct comparison to all concentration-response experiments including the toxicity assays. […] All group sizes were determined via previous studies to provide statistically meaningful data. In the soft agar assays, key results were repeated with different JB6 P+ cells to confirm the results. Similarly, the shRNA studies were conducted with three independent concentration-response curves with different JB6 P+ cell stocks. […] For two sample comparisons a t-test was utilized, and when comparing multiple samples a One-, Two-, or Three-Factor ANOVA followed by Tukey-Kramer post hoc test was utilized depending on the data. For all tests, statistical difference was donated when p < 0.05. […] The I[…]*PSD is expressed in x-axis units (log [M]) as is an IC50 and it represents the first concentration where it is expected to observe a statistical decrease in the measured signal. […] Using the formula provided by GraphPad Prism or a straight line for the point-to-point graphs, the X-axis value for point Y was determined. The error is ascribed to this measurement via adding and subtracting the pooled standard deviation (PSD) to/from point Y generating point Y ± PSD. The two new points were then transformed to the X-axis units as was done for point Y creating an asymmetric error in sigmoidal plots. When the error was asymmetric, the larger error value was chosen to err on the conservative side. See S1 Fig for a pictoral explination of the method. The data is presented as I[…]*PSD ± error.

IC50 (JB6 P+ cells [3]): 347 nM
SMILES: OC(CNCC(O)C1CCc2cc(F)ccc2O1)C1CCc2cc(F)ccc2O1 (stereo not drawn) [Nebivolol]
Pharmacological property at β2-AR (β2-AR [1]): Biased agonist/ activates ERK [46]
SRB Assay Log IΔ2*PSD (JB6 P+ cells [2]): -4.65 ± 0.19 log [M]
Log Kd at β2-AR (β2-AR [4]): -7.91 ± 0.07 [47]
IC50 (JB6 P+ cells [5]; 10 ng/mL EGF, soft agar, read-out: IC50, inhibition of EGF-mediated transformation): ≤ 1000 nM
IC50 (JB6 P+ cells [5]; Mus musculus, 10 ng/mL EGF, soft agar, read-out: IC50, inhibition of EGF-mediated transformation): 1090 nM
IC50 (JB6 P+ cells [5]; Mus musculus, 336 h, 10 ng/mL EGF, 14 days, negative log value, read-out: Soft Agar Assay Log IC50 (converted)): 1100 nM
minimal effective concentration (JB6 P+ cells [5]; Mus musculus, 336 h, 10 ng/mL EGF, 14 days, first concentration with expected statistical decrease, read-out: Soft Agar Assay Log IΔ2*PSD (converted)): 0.479 µM
Emax (JB6 P+ cells [5]; Mus musculus, efficacy of inhibition of colony formation, reported if non-toxic): 96.5 ± 7.24%
